According to patent US20230181536A1, “ANTICANCER COMBINATION THERAPY WITH N-(1-ACRYLOYL-AZETIDIN-3-YL)-2-((1H-INDAZOL-3-YL)AMINO)METHYL)-1H-IMIDAZOLE-5-CARBOXAMIDE INHIBITOR OF KRAS-G12C” (TAIHO PHARMACEUTICAL CO., LTD., priority 2020, published 2023):

molecular target: T1, KRAS G12C (Homo sapiens, UniProt P01116, G12C); test: Inhibitory activity on the KRAS G12C nucleotide (GDP-GTP) exchange reaction; format: biochemical; details: Bodipy FL GDP-bound KRAS G12C 25 nM; preincubation at 25° C. for 4 hours; SOS1 100 nM, GppNHp 1 μM, reaction for 30 minutes
T1 construct: KRAS G12C (amino acid region: 1-169)
T1 sequence (P01116 1-169 isoform P01116-2 G12C): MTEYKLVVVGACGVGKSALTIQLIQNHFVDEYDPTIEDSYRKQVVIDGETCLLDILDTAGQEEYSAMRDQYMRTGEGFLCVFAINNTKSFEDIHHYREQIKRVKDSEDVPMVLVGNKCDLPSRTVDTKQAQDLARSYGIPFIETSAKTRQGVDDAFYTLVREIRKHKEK
Procedure, shortened: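 Bodipy FL-GDP-loaded KRAS G12C (aa 1-169, 25 nM) preincubated with compound 4 h at 25 °C in pH 7.5 Tris buffer, 5% DMSO; exchange started with SOS1 (aa 564-1049, 100 nM) and 1 μM GppNHp for 30 min. Fluorescence change (ex 485/em 520 nm) normalized to DMSO and no-GppNHp controls; IC50 calculated.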

Row | IC50 | SMILES
1 | 4 nM | C=CC(=O)N1CC(NC(=O)c2c(Cl)nc(CNc3n[nH]c4cc(Cl)c(C(C)(C)C)cc34)n2[C@@H]2C[C@@H](C)N(CC(F)F)C2)C1 [Example 126, N-(1-acryloylazetidin-3-yl)-2-(((5-(tert-butyl)-6-chloro-1H-indazol-3-yl)amino)methyl)-4-chloro-1-((3R,5R)-1-(2,2-difluoroethyl)-5-methylpyrrolidin-3-yl)-1H-imidazole-5-carboxamide]
2 | 2170 nM | C=CC(=O)N1CC(NC(=O)c2cnc(CNc3n[nH]c4cc(Cl)c(C=C)cc34)n2C)C1 [Example 38, N-(1-acryloylazetidin-3-yl)-2-(((6-chloro-5-vinyl 1H-indazol-3-yl)amino)methyl)-1-methyl-1H-imidazole-5-carboxamide]
3 | 85 nM | C=CC(=O)N1C[C@@H](NC(=O)c2c(C)nc(CNc3n[nH]c4cc(Cl)c(C(C)(C)C)cc34)n2C)[C@@H]1C (relative stereo) [Example 59, N-(trans-1-acryloyl-2-methylazetidin-3-yl)-2-(((5-(tert-butyl)-6-chloro-1H-indazol-3-yl)amino)methyl)-1,4-dimethyl-1H-imidazole-5-carboxamide]
4 | 126 nM | C=CC(=O)N1CCC(NC(=O)c2c(C)nc(CNc3n[nH]c4cc(Cl)c(C(C)(C)C)cc34)n2C)C1 (stereo not shown) [Example 48, N-(1-acryloylpyrrolidin-3-yl)-2-(((5-(tert-butyl)-6-chloro-1H-indazol-3-yl)amino)methyl)-1,4-dimethyl-1H-imidazole-5-carboxamide]
5 | 11 nM | C=CC(=O)N1CC(NC(=O)c2c(F)nc(CNc3n[nH]c4cc(Cl)c(C(C)(C)C)cc34)n2C)C1 [Example 30, N-(1-acryloylazetidin-3-yl)-2-(((5-(tert-butyl)-6-chloro-1H-indazol-3-yl)amino)methyl)-4-fluoro-1-methyl-1H-imidazole-5-carboxamide]
6 | 642 nM | C=CC(=O)N1CC(NC(=O)c2c(CC)nc(CNc3n[nH]c4cc(Cl)c(C(C)(C)C)cc34)n2C)C1 [Example 31, N-(1-acryloylazetidin-3-yl)-2-(((5-(tert-butyl)-6-chloro-1H-indazol-3-yl)amino)methyl)-4-ethyl-1-methyl-1H-imidazole-5-carboxamide]
7 | 7 nM | C=CC(=O)N1CC(NC(=O)c2c(Cl)nc(CNc3n[nH]c4cc(Cl)c(C(C)(C)C)cc34)n2[C@@H]2CCN(C(C)C)C2)C1 [Example 114, (R)-N-(1-acryloylazetidin-3-yl)-2-(((5-(tert-butyl)-6-chloro-1H-indazol-3-yl)amino)methyl)-4-chloro-1-(1-isopropylpyrrolidin-3-yl)-1H-imidazole-5-carboxamide]
8 | 324 nM | C=CC(=O)N1C[C@@H](F)[C@@H](NC(=O)c2c(C)nc(CNc3n[nH]c4cc(Cl)c(C(C)(C)C)cc34)n2C)C1 [Example 57, N-((3S,4R)-1-acryloyl-4-fluoropyrrolidin-3-yl)-2-(((5-(tert-butyl)-6-chloro-1H-indazol-3-yl)amino)methyl)-1,4-dimethyl-1H-imidazole-5-carboxamide]
9 | 20 nM | C=CC(=O)N1C[C@@H](C)[C@@H](NC(=O)c2c(Cl)nc(CNc3n[nH]c4cc(Cl)c(C(C)(C)C)cc34)n2C)C1 [Example 78, N-((3R,4R)-1-acryloyl-4-methylpyrrolidin-3-yl)-2-(((5-(tert-butyl)-6-chloro-1H-indazol-3-yl)amino)methyl)-4-chloro-1-methyl-1H-imidazole-5-carboxamide]
10 | 6 nM | C=CC(=O)N1CC(NC(=O)c2c(Cl)nc(CNc3n[nH]c4cc(Cl)c(C(C)(C)C)cc34)n2[C@@H]2CCN(c3ccccn3)C2)C1 [Example 124, (R)-N-(1-acryloylazetidin-3-yl)-2-(((5-(tert-butyl)-6-chloro-1H-indazol-3-yl)amino)methyl)-4-chloro-1-(1-(pyridin-2-yl)pyrrolidin-3-yl)-1H-imidazole-5-carboxamide]
11 | 9 nM | C=CC(=O)N1CC(NC(=O)c2c(Cl)nc(CNc3n[nH]c4cc(Cl)c(C(C)(C)C)cc34)n2C2CN(C(C)=O)C2)C1 [Example 108, 1-(1-acetylazetidin-3-yl)-N-(1-acryloylazetidin-3-yl)-2-(((5-(tert-butyl)-6-chloro-1H-indazol-3-yl)amino)methyl)-4-chloro-1H-imidazole-5-carboxamide]
12 | 196 nM | COC/C=C/C(=O)N1CC(NC(=O)c2c(C)nc(CNc3n[nH]c4cc(Cl)c(C(C)(C)C)cc34)n2C(C)C)C1 [Example 85, (E)-2-(((5-(tert-butyl)-6-chloro-1H-indazol-3-yl)amino)methyl)-1-isopropyl-N-(1-(4-methoxybut-2-enoyl)azetidin-3-yl)-4-methyl-1H-imidazole-5-carboxamide]
13 | 20 nM | C=CC(=O)N1C[C@@H](CF)[C@@H](NC(=O)c2c(C)nc(CNc3n[nH]c4cc(Cl)c(C(C)(C)C)cc34)n2C)C1 [Example 66, N-((3R,4R)-1-acryloyl-4-(fluoromethyl)pyrrolidin-3-yl)-2-(((5-(tert-butyl)-6-chloro-1H-indazol-3-yl)amino)methyl)-1,4-dimethyl-1H-imidazole-5-carboxamide]
14 | 70 nM | C=CC(=O)N1CC(NC(=O)c2c(C#N)nc(CNc3n[nH]c4cc(Cl)c(C(C)(C)C)cc34)n2C)C1 [Example 28, N-(1-acryloylazetidin-3-yl)-2-(((5-(tert-butyl)-6-chloro-1H-indazol-3-yl)amino)methyl)-4-cyano-1-methyl-1H-imidazole-5-carboxamide]
15 | 122 nM | Cc1nc(CNc2n[nH]c3cc(Cl)c(C(C)(C)C)cc23)n(C(C)C)c1C(=O)NC1CN(C(=O)/C=C/CN2CCCCC2)C1 [Example 79, (E)-2-(((5-(tert-butyl)-6-chloro-1H-indazol-3-yl)amino)methyl)-1-isopropyl-4-methyl-N-(1-(4-(piperidin-1-yl)but-2-enoyl)azetidin-3-yl)-1H-imidazole-5-carboxamide]
16 | 15 nM | C=CC(=O)N1CC(NC(=O)c2c(Cl)nc(CNc3n[nH]c4cc(Cl)c(C(C)(C)C)cc34)n2[C@H]2C[C@H](C)CC[C@H]2C(C)C)C1 [Example 111, N-(1-acryloylazetidin-3-yl)-2-(((5-(tert-butyl)-6-chloro-1H-indazol-3-yl)amino)methyl)-4-chloro-1-((1S,2S,5R)-2-isopropyl-5-methylcyclohexyl)-JH-imidazole-5-carboxamide]
17 | 10 nM | C=CC(=O)N1CC(NC(=O)c2c(C(F)F)nc(CNc3n[nH]c4cc(Cl)c(C(C)(C)C)cc34)n2C2CCN(CC)C2)C1 (stereo not shown) [Example 92, N-(1-acryloylazetidin-3-yl)-2-(((5-(tert-butyl)-6-chloro-1H-indazol-3-yl)amino)methyl)-4-(difluoromethyl)-1-(1-ethylpyrrolidin-3-yl)-1H-imidazole-5-carboxamide]
18 | 8 nM | C=CC(=O)N1CC(NC(=O)c2c(Cl)nc(CNc3n[nH]c4cc(Cl)c(C(C)(C)C)cc34)n2[C@H]2CCN(C(C)C)C2)C1 [Example 116, (S)-N-(1-acryloylazetidin-3-yl)-2-(((5-(tert-butyl)-6-chloro-1H-indazol-3-yl)amino)methyl)-4-chloro-1-(1-isopropylpyrrolidin-3-yl)-1H-imidazole-5-carboxamide]
19 | 158 nM | C=CC(=O)N1CC(NC(=O)c2cnc(CNc3n[nH]c4cc(Cl)c(C(C)(C)C)cc34)n2Cc2cc(OC)cc(OC)c2)C1 [Example 88, N-(1-acryloylazetidin-3-yl)-2-(((5-(tert-butyl)-6-chloro-1H-indazol-3-yl)amino)methyl)-1-(3,5-dimethoxybenzyl)-1H-imidazole-5-carboxamide]
20 | 6 nM | C=CC(=O)N1CC(NC(=O)c2c(Cl)nc(CNc3n[nH]c4cc(Cl)c(C(C)(C)C)cc34)n2[C@@H]2CCN(C3CC3)C2)C1 [Example 120, (R)-N-(1-acryloylazetidin-3-yl)-2-(((5-(tert-butyl)-6-chloro-1H-indazol-3-yl)amino)methyl)-4-chloro-1-(1-cyclopropylpyrrolidin-3-yl)-1H-imidazole-5-carboxamide]
21 | 50 nM | C=CC(=O)N1CC(NC(=O)c2c(C(F)(F)F)nc(CNc3n[nH]c4cc(Cl)c(C(C)(C)C)cc34)n2C(C)C)C1 [Example 32, N-(1-acryloylazetidin-3-yl)-2-(((5-(tert-butyl)-6-chloro-1H-indazol-3-yl)amino)methyl)-1-isopropyl-4-(trifluoromethyl)-1H-imidazole-5-carboxamide]
22 | 870 nM | C=CC(=O)N1CC(NC(=O)c2cnc(CNc3n[nH]c4cc(Cl)c(CC)cc34)n2C)C1 [Example 39, N-(1-acryloylazetidin-3-yl)-2-(((6-chloro-5-ethyl-1H-indazol-3-yl)amino)methyl)-1-methyl-1H-imidazole-5-carboxamide]
23 | 163 nM | C=CC(=O)N1CC(NC(=O)c2c(C(F)(F)F)nc(CNc3n[nH]c4cc(Cl)c(C(C)(C)C)cc34)n2C)C1 [Example 25, N-(1-acryloylazetidin-3-yl)-2-(((5-(tert-butyl)-6-chloro-1H-indazol-3-yl)amino)methyl)-1-methyl-4-(trifluoromethyl)-1H-imidazole-5-carboxamide]
24 | 180 nM | C=CC(=O)N1CC(NC(=O)c2c(Cl)nc(CNc3n[nH]c4cc(Cl)c(C5(C(F)(F)F)CC5)cc34)n2C(C)C)C1 [Example 44, N-(1-acryloylazetidin-3-yl)-4-chloro-2-(((6-chloro-5-(-(trifluoromethyl)cyclopropyl)-1H-indazol-3-yl)amino)methyl)-1-isopropyl-1H-imidazole-5-carboxamide]
25 | 6 nM | C=CC(=O)N1CC(NC(=O)c2c(Cl)nc(CNc3n[nH]c4cc(Cl)c(C(C)(C)C)cc34)n2[C@@H]2CCN(Cc3ccccc3)C2)C1 [Example 122, (R)-N-(1-acryloylazetidin-3-yl)-1-(1-benzylpyrrolidin-3-yl)-2-(((5-(tert-butyl)-6-chloro-1H-indazol-3-yl)amino)methyl)-4-chloro-1H-imidazole-5-carboxamide]
